Data on one compound can be found in patent US20080089894A1, “Transplant tolerance by costimulation blockade and T-cell activation-induced apoptosis” (priority 1998, published 2008).

Several values for one entry are separate records, joined by “and”; a condition that tells them apart may be missing. Equal values may be shown once.

The test concerns BALB/c mouse heart allografts. Nature of the test: BALB/c mouse heart allograft survival in C3H/He mice. The class given is in vivo. The following applies: BALB/c heart allograft in C3H/He host; one value per mouse; checked daily by palpitation; time in days. How it is done: A control group of three C3H/He mice received syngeneic transplants. The treatments were given as follows:
Group 1) Anti-CD40L+CTLA4-Ig
Anti-CD40L: 250 μg/injection i.v. (intravenous) on day 0, i.p. (intraperitoneal) on day +2, +4,
CTLA4-Ig: 200 μg/injection i.p. on day 0, +2, +4, +6.
Anti-CD40L: 250 μg/injection i.v. on day 0, i.p. on day +2, +4,
CTLA4-Ig: 200 μg/injection i.p. on day 0, +2, +4, +6,
Group 3) Anti-CD40L+CTLA4-Ig+RPM
CTLA4-Ig: 200 μg/injection i.p. on day 0, +2, +4, +6
RPM: 0.2 mg/kg/day i.p. on day 0, +1, +2, then every other day to day +14.
RPM: 0.2 mg/kg/day i.p. on day 0, +1, +2, then every other day to day +14. The hosts were checked daily for graft survival by palpitation. In addition, other mice were sacrificed for pathologic examination at various time points.

Consider `CO[C@H]1C[C@@H]2CC[C@@H](C)[C@@](O)(O2)C(=O)C(=O)N2CCCC[C@H]2C(=O)O[C@H]([C@H](C)C[C@@H]2CC[C@@H](O)[C@H](OC)C2)CC(=O)[C@H](C)/C=C(\C)[C@@H](O)[C@@H](OC)C(=O)[C@H](C)C[C@H](C)/C=C/C=C/C=C/1C` [RPM, rapamycin], for which the “Graft Survival” value was > 100 (3×) and > 97 and > 89.
